Measured values reported in patent US10015967B2, “Form of isoxadifen-ethyl, a process for its preparation and use of the same” (ROTAM AGROCHEM INTERNATIONAL COMPANY LIMITED, priority 2015, dated 2018).

Columns and labels:
[1] = Stability test: aging of formulation samples in heated ovens per CIPAC MT 46.3, isoxadifen-ethyl content by HPLC; type: physicochemical; conditions: for RPH % (relative percentage of hydrolysis): stored at 54° C. for 1 week
Protocol: The stability of the isoxadifen-ethyl in these compositions was determined by aging samples in heated ovens having the same atmosphere therein, and then comparing the isoxadifen-ethyl content before and after aging to determine relative percentage of hydrolysis (RPH). RPH was calculated by the following equation: […]
Isoxadifen-ethyl content was determined by assaying the compositions with high-pressure liquid chromatography (HPLC) using reverse phase columns and eluants.
Samples prepared in Examples 4, 5 and 6 were stored at 54° C. for 1 week. The procedures are followed according to CIPAC MT 46.3. The concentration of isoxadifen-ethyl was measured at the end of each storage time by HPLC.

[2] = Stability of isoxadifen-ethyl (hydrolysis in water or during storage), general statement; type: physicochemical; conditions: dissolved or dispersed in water; storage with exposure to moisture
[3] = Example 4 oil based suspension concentrate (OD) with tribenuron-methyl, 10 weight % isoxadifen-ethyl
[4] = Example 5 soluble granules (SG) with metsulfuron-methyl, 7 weight % isoxadifen-ethyl
[5] = Example 6 water dispersible granules (WG) with metsulfuron-methyl, 7 weight % isoxadifen-ethyl

| Compound | RPH % (relative percentage of hydrolysis) [1, 3] [%] | RPH % (relative percentage of hydrolysis) [1, 4] [%] | RPH % (relative percentage of hydrolysis) [1, 5] [%] | stability (hydrolysis) [2] | stability when mixing with sulfonylurea herbicides in formulations ([1]; relative to formulations containing the amorphous form) |
| --- | --- | --- | --- | --- | --- |
| CCOC(=O)C1=NOC(c2ccccc2)(c2ccccc2)C1 [Amorphous isoxadifen-ethyl, Ethyl 4,5-dihydro-5,5-diphenyl-3-isoxazolecarboxylate] | 50 | 40 | 45 | highly unstable | – |
| CCOC(=O)C1=NOC(c2ccccc2)(c2ccccc2)C1 [Isoxadifen-ethyl, crystalline modification I] [Ethyl 4,5-dihydro-5,5-diphenyl-3-isoxazolecarboxylate] | 0 | 0 | 0 | – | significant increase in its stability |
